# Data from patent US20080125432A1 (Devgen NV, priority 2004, published 2008).
# Read-outs that look alike come from different tables or passages of the source.
# Columns and labels:
# [1] = target: T1, human Kv4.3/KChIP2.2 potassium channel (Homo sapiens, UniProt Q9UK17); assay: Whole cell patch clamp, CHO-K1 cells stably expressing human Kv4.3/KChIP2.2; type: cell-based; details: CHO-K1
# T1 construct: expressed in transfected cells
# T1 sequence (Q9UK17 1-655): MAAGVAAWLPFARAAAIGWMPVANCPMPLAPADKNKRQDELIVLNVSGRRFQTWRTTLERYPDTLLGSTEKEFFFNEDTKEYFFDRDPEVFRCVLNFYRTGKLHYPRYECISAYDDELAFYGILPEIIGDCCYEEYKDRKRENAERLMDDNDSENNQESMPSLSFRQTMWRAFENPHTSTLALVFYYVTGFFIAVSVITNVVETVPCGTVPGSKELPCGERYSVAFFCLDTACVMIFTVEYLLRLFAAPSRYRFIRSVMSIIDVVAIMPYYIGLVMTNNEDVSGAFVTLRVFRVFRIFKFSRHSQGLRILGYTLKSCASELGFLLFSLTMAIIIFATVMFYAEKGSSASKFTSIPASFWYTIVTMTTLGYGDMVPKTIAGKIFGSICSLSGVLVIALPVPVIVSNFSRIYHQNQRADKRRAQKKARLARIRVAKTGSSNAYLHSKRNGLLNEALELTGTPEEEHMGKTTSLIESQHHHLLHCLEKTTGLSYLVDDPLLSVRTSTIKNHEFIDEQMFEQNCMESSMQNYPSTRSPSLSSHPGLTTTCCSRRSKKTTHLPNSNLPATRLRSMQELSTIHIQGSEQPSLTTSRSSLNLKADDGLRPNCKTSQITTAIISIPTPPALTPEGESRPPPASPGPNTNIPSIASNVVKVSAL
# Method: For this experiment, a recombinant CHO-K1 cell line stably expressing the human Kv4.3/KChIP2.2 potassium channel was used. The cells used for this experiment were kept in continuous culture under standard conditions (37° C., air supplemented with 7% CO2). The CHO-K1 Kv4.3/KChIP2.2 cells were kept in Iscove s modified DMEM (Dulbecco's Modified Eagle's Medium) medium (IMEM) supplemented with 100 U/ml Penicillin, 100 μg/ml Streptomycin, 7% fetal calf serum (FCS), 2.5 μg/ml amphotericin, 400 μg/ml G418, and 400 μg/ml Zeocin™. Cells were passed every 3-4 days after detachment using a Trypsin solution. The quality of the cultured cells was guaranteed by vitality and contamination tests. The culture of the cells was performed as described in protocol D hereunder.
# 10 mM stock solutions of the compounds were prepared in DMSO. Solutions of the compounds were prepared by dilution of stock solution in bath solution. If the required stock solution volume was theoretically below 1 μl, bath solutions with higher compound concentration were used for dilution. The maximal DMSO concentration during experiments was 0.1% (v/v).
# Activity of the human Kv4.3/KChIP2.2 channel was investigated using the patch clamp technique in its whole cell mode. This means that the current needed for clamping the whole cell expressing the K^+-channel protein to a specific potential was measured. Experiments were performed using a patch clamp set-up. Technical equipment needed for manipulation of the cells was placed on a vibration-isolated table and shielded with a Faraday cage to minimize electrical noise. The amplifier and control system were placed in a rack outside the Faraday cage. The system consisted of an EPC9 or EPC10 patch clamp amplifier (HEKA, Lambrecht, Germany), and the perfusion system DADVC8 (ALA Scientific, New York, USA) controlled by the Pulse software package (HEKA, Lambrecht, Germany) installed on a personal computer. The pipettes used for patch clamping were made of borosilicate glass.
# Measurements were performed at room temperature (20-25° C.). In each experiment (i.e. each cell) only one concentration of the compounds was investigated no cumulative dosages were performed. Each cell acted as its own control. […]
# Between voltage pulses the cell was clamped to a holding potential of −80 mV (inside). The test protocols are illustrated in FIG. 1 and Table 4. The test protocol illustrated in FIG. 1a was used to characterize the properties of the Kv4.3/KChIP2.2 channel and to check the quality of the individual patch clamp experiment (voltage control). […] Each test protocol consisted of 4 segments.
# After the whole cell configuration was established a current-voltage curve (IV activation 1; FIG. 1a and Table 4a) was recorded under constant superfusion with bath solution to check for Kv4.3/KChIP2.2 expression and the quality of the individual patch clamp experiment (voltage control). Subsequently, 14 test pulses (series 1; FIG. 1b and Table 4b) were applied at 0.1 Hz under constant superfusion with bath solution. The protocol was initiated by a voltage jump to 100 mV (400 ms) to achieve full inactivation. Then the Kv4.3/KChIP2.2 channels were transferred to the open state by depolarization to +40 mV for 300 milliseconds (activation). Only cells generating current amplitudes between 1 nA and 50 nA were used for the experimental procedure. No or negligible rundown was observed.
# Then, 36 test pulses (series 2) were applied at 0.1 Hz under constant superfusion with the compound dissolved in bath solution. Finally, another current-voltage curve was recorded in the presence of the compounds (IV activation 2).
# Three different types of analysis were used: Inhibition at the peak current, inhibition of translocated charge and inhibition 75 ms after activation at +40 mV (sustained current). The peak current/charge/current at 75 ms was determined using the online analysis tool of the HEKA pulse software package. […]
# [2] = remaining current measured after application of the compound and relative to the blank, read-out: Kv4.3 charge in %
# [3] = remaining peak height measured after application of the compound and relative to the blank, read-out: Kv4.3 peak in %
"remaining activity at 1 µM [1, 2]","remaining activity at 1 µM [1, 3]",melting point,Compound
75%,89%,191.6 to 194.5 °C,"COc1ccccc1Nc1nc(C)c(C(=O)NCc2ccc(-c3csnn3)cc2)s1 [Compound 161, 2-(2-methoxy-phenylamino)-4-methyl-thiazole-5-carboxylic acid 4-[1,2,3]thiadiazol-4-yl-benzylamide]"
80%,100%,134.5 to 139 °C,"COc1ccccc1Nc1nc(C)c(C(=O)N2CCC(c3ccccc3OC)CC2)s1 [Compound 165, [2-(2-methoxy-phenylamino)-4-methyl-thiazol-5-yl]-[4-(2-methoxy-phenyl)-piperidin-1-yl]-methanone]"
90%,97%,> 250 °C,"COc1ccccc1Nc1nc(C)c(C(=O)N2CCC(n3c(=O)[nH]c4ccccc43)CC2)s1 [Compound 170, 1-{1-[2-(2-methoxy-phenylamino)-4-methyl-thiazole-5-carbonyl]-piperidin-4-yl}-1,3-dihydro-benzoimidazol-2-one]"
85%,95%,44.6 to 47.6 °C,"COc1ccccc1Nc1nc(C)c(C(=O)NCCOCc2ccccc2)s1 [Compound 88, 2-(2-methoxy-phenylamino)-4-methyl-thiazole-5-carboxylic acid (2-benzyloxy-ethyl)-amide]"
55%,93%,145.7 to 148 °C,"CCOC(=O)c1cccc(Nc2nc(C)c(C(=O)N[C@H]3CCC[C@@H]3OCc3ccccc3)s2)c1 [Compound 89, 3-[5-((1S,2S)-2-benzyloxy-cyclopent-1-ylcarbamoyl)-4-methyl-thiazol-2-ylamino]-benzoic acid ethyl ester]"
85%,99%,199.7 to 200.3 °C,"COc1ccccc1Nc1nc(C)c(C(=O)NCc2ccc(CNC(C)=O)cc2)s1 [Compound 96, 2-(2-methoxy-phenylamino)-4-methyl-thiazole-5-carboxylic acid 4-(acetylamino-methyl)-benzylamide]"
77%,97%,143.2 to 147.6 °C,"COc1ccccc1Nc1nc(C)c(C(=O)NC2Cc3ccccc3C2)s1 [Compound 83, 2-(2-methoxy-phenylamino)-4-methyl-thiazole-5-carboxylic acid indan-2-ylamide]"
76%,89%,159.7 to 162.4 °C,"COc1ccccc1Nc1nc(C)c(C(=O)NCc2ccc(Oc3ccccc3)cc2)s1 [Compound 102, 2-(2-methoxy-phenylamino)-4-methyl-thiazole-5-carboxylic acid 4-phenoxy-benzylamide]"
64%,89%,195.6 to 198.6 °C,"COc1ccccc1Nc1nc(C)c(C(=O)NCc2ccc(-c3cccs3)cc2)s1 [Compound 103, 2-(2-methoxy-phenylamino)-4-methyl-thiazole-5-carboxylic acid 4-thiophen-2-yl-benzylamide]"
,,146.2 to 148 °C,"COc1ccccc1Nc1nc(C)c(C(=O)NC2CCc3ccccc32)s1 (stereo not drawn) [Compound 164, 2-(2-methoxy-phenylamino)-4-methyl-thiazole-5-carboxylic acid indan-1-ylamide]"
,,71.6 to 84.3 °C,"COc1ccccc1Nc1nc(C)c(C(=O)NCc2ccc(F)c(C(F)(F)F)c2)o1 [Compound 223, 2-(2-methoxy-phenylamino)-4-methyl-oxazole-5-carboxylic acid 4-fluoro-3-trifluoromethyl-benzylamide]"
,,212.5 to 213.9 °C,"COc1ccccc1Nc1ncc(C(=O)NCc2ccccc2)[nH]1 [Compound 224, 2-(2-methoxy-phenylamino)-3H-imidazole-4-carboxylic acid benzylamide]"
,,135.2 to 138.9 °C,"COc1ccccc1Nc1nc(C)c(C(=O)NCc2ccc(OC(F)(F)F)cc2)s1 [Compound 159, 2-(2-methoxy-phenylamino)-4-methyl-thiazole-5-carboxylic acid 4-trifluoromethoxy-benzylamide]"
,,129.4 °C,"COc1ccccc1Nc1nc(C)c(C(=O)NC2CCCc3ccccc32)s1 (stereo not drawn) [Compound 173, 2-(2-methoxy-phenylamino)-4-methyl-thiazole-5-carboxylic acid (1,2,3,4-tetrahydro-naphthalen-1-yl)-amide]"
,,177.2 to 181.4 °C,"Cc1nc(NC(=O)c2ccc(C#N)cc2)sc1C(=O)N[C@H]1CCC[C@@H]1OCc1ccccc1 [Compound 181, 2-(4-cyano-benzoylamino)-4-methyl-thiazole-5-carboxylic acid ((1S,2S)-2-benzyloxycyclopent-1-yl) amide]"
,,142 to 147.7 °C,"COc1ccccc1Nc1nc(C)c(C(=O)NCc2c(C)cc(Cl)cc2Cl)s1 [Compound 220, 2-(2-methoxy-phenylamino)-4-methyl-thiazole-5-carboxylic acid 2,4-dichloro-6-methyl-benzylamide]"
,,227.9 to 230 °C,"COc1ccccc1Nc1ncc(C(=O)NCc2ccc(F)c(C(F)(F)F)c2)[nH]1 [Compound 226, 2-(2-methoxy-phenylamino)-3H-imidazole-4-carboxylic acid 4-fluoro-3-trifluoromethyl-benzylamide]"
,,78.1 to 81.7 °C,"Cc1nc(Nc2ccncc2)sc1C(=O)N[C@H]1CCC[C@@H]1OCc1ccccc1 [Compound 153, 4-methyl-2-(pyridin-4-ylamino)-thiazole-5-carboxylic acid ((1S,2S)-2-benzyloxycyclopent-1-yl) amide]"
,,134.1 to 136.2 °C,"COc1ccc(CNC(=O)c2cnc(Nc3ccccc3OC)[nH]2)c(OC)c1 [Compound 225, 2-(2-methoxy-phenylamino)-3H-imidazole-4-carboxylic acid 2,4-dimethoxy-benzylamide]"
,,76.1 to 80.2 °C,"COc1ccccc1Nc1nc(C)c(C(=O)NCc2ccccc2OC(F)(F)F)s1 [Compound 157, 2-(2-methoxy-phenylamino)-4-methyl-thiazole-5-carboxylic acid 2-trifluoromethoxy-benzylamide]"
,,161.3 to 164.1 °C,"COc1ccccc1Nc1nc(C)c(C(=O)NCc2cccc(Br)c2)s1 [Compound 147, 2-(2-methoxy-phenylamino)-4-methyl-thiazole-5-carboxylic acid 3-bromo-benzylamide]"
